The values that follow come from US9157105B2, “Biosynthesis of CMP-legionaminic acid from fructose-6-P, and respective pathway intermediates, using novel GDP-linked precursors” (priority 2008, dated 2015).

SMILES strings stand for the structures.

Assay [1] deals with LegH (Cj1298, N-acetyltransferase). The assay is described as follows: LegH N-acetyltransferase reaction. It counts as biochemical, Campylobacter jejuni 11168. The conditions noted are these: acetyl-CoA. The procedure: (§1) Enzymatic reactions were performed for 4.5 h at 37° C., and then overnight at 25° C., with approximately 200 μg ml^−1 respective protein concentration using chemicals from Sigma (unless otherwise indicated). GDP-glucosamine biosynthesis. The ‘one-pot’ enzymatic synthesis of GDP-GlcN from Fru-6-P (I→IV) was accomplished using a 3 ml reaction containing His6PtmF, PtmAHis6, PgmLHis6, His6PtmE, 5 mM Fru-6-P (I), 10 mM L-Gln, 1 mM DTT, 5 mM MgCl2, 0.8 U ml^−1 pyrophosphatase, and 2.5 mM GTP in 25 mM Tris pH 7.5. Large-scale enzymatic synthesis of GDP-GlcN (IV) was accomplished using a 12 ml reaction containing 50 mM Tris pH 7.5, 1 mM GTP, 1 mM MgCl2, 0.8 U ml^−1 pyrophosphatase, 1.2 mM GlcN-1-P (III) and approximately 4.8 mg of His6PtmE. The large-scale enzymatic synthesis of GDP-GlcNAc was performed similar to that above, except the scale was increased five-fold and GlcNAc-1-P was used in place of GlcN-1-P (III). […] In addition, the substrate flexibility of His6LegG was assessed using a 300 μl reaction containing 40 μg His6LegG, 25 mM sodium phosphate pH 7.3, 25 mM NaCl, and 0.75 mM UDP-2,4-diacetamido-2,4,6-trideoxy-α-D-Glc, with incubation at 37° C. for 1.5 h, and then overnight at 25° C. […] Quantification of NDP-sugar preparations was determined using the molar extinction coefficients of CMP (ε260=7,400), GDP (ε260=11,500), TDP (ε260=8,700), and UDP (ε260=10,000). […]

The target in assay [2] is T1, PglD (N-acetyltransferase) (Campylobacter jejuni subsp. jejuni serotype O:2, UniProt Q0P9D1).
T1 construct: His6 (C); made in house; host or cells: E. coli BL21[DE3]
The assay is described as follows: PglD N-acetyltransferase reaction. It counts as biochemical. The conditions noted are these: acetyl-CoA.

Assay [3] has as its system LegC (Cj1320, PLP-dependent aminotransferase). The assay can be described thus: LegC aminotransferase reaction. The conditions noted are these: L-Glu. Type of assay: biochemical, Campylobacter jejuni 11168. The procedure:
as §1

Assay [4] addresses T2, His6LegG (Cj1328, NDP-sugar hydrolase/2-epimerase) (Campylobacter jejuni subsp. jejuni serotype O:2, UniProt Q0P8T0).
T2 construct: made in house; host or cells: E. coli BL21[DE3]
The assay can be described thus: His6LegG activity and substrate flexibility (1H NMR, CE). Type of assay: biochemical, Campylobacter jejuni 11168. The procedure: Enzymatic reactions were performed for 4.5 h at 37° C., and then overnight at 25° C., with approximately 200 μg ml^−1 respective protein concentration using chemicals from Sigma (unless otherwise indicated). GDP-glucosamine biosynthesis. The ‘one-pot’ enzymatic synthesis of GDP-GlcN from Fru-6-P (I→IV) was accomplished using a 3 ml reaction containing His6PtmF, PtmAHis6, PgmLHis6, His6PtmE, 5 mM Fru-6-P (I), 10 mM L-Gln, 1 mM DTT, 5 mM MgCl2, 0.8 U ml^−1 pyrophosphatase, and 2.5 mM GTP in 25 mM Tris pH 7.5. Large-scale enzymatic synthesis of GDP-GlcN (IV) was accomplished using a 12 ml reaction containing 50 mM Tris pH 7.5, 1 mM GTP, 1 mM MgCl2, 0.8 U ml^−1 pyrophosphatase, 1.2 mM GlcN-1-P (III) and approximately 4.8 mg of His6PtmE. The large-scale enzymatic synthesis of GDP-GlcNAc was performed similar to that above, except the scale was increased five-fold and GlcNAc-1-P was used in place of GlcN-1-P (III). Assessment of His6PtmE substrate specificity was accomplished using 9 reactions, 80 μl each, containing 50 mM Tris pH 7.5, 2 mM MgCl2, 50 μg His6PtmE, and various combinations of 10 mM sugar-1-P (GalN-1-P, GlcN-1-P or GlcNAc-1-P) and 0.2 mM NTP (CTP, GTP, or TTP). Conversion of GDP-GlcN to GDP-GlcNAc. The His6GlmU reaction was performed using 1 mM GDP-GlcN (IV), 1.2 mM acetyl-CoA and His6GlmU in 25 mM sodium phosphate pH 7.8, 25 mM NaCl, 10 mM β-mercaptoethanol. In addition, a control reaction was performed containing 1 mM GlcN-1-P (III) instead of IV. Biosynthesis of legionaminic acid from GDP-GlcNAc. The stepwise enzymatic synthesis of intermediates or products was accomplished in 2 stages (V→VI→VII→VIII, and then VIII→IX→X) using 1 mM of V, 0.5 mM NAD, 0.8 mM PLP, 8 mM L-Glu, 1.2 mM acetyl-CoA, 1.2 mM PEP, LegBHis6, His6LegC, His6LegH, His6LegG, and His6LegI as appropriate, in 25 mM sodium phosphate pH 7.3, 25 mM NaCl. Assessment of His6LegG activity involved monitoring the reaction kinetics by ^1H NMR (see NMR spectroscopy) for 75 min using 0.75 mM GDP-2,4-diacetamido-2,4,6-trideoxy-α-D-Glc (VIII), 4 μg His6LegG in 200 μl of 25 mM sodium phosphate pH 7.3, 25 mM NaCl at 25° C. In addition, the substrate flexibility of His6LegG was assessed using a 300 μl reaction containing 40 μg His6LegG, 25 mM sodium phosphate pH 7.3, 25 mM NaCl, and 0.75 mM UDP-2,4-diacetamido-2,4,6-trideoxy-α-D-Glc, with incubation at 37° C. for 1.5 h, and then overnight at 25° C. Biosynthesis of CMP-legionaminic acid. […] Quantification of NDP-sugar preparations was determined using the molar extinction coefficients of CMP (ε260=7,400), GDP (ε260=11,500), TDP (ε260=8,700), and UDP (ε260=10,000). […]

Assay [5] has as its system LegB (Cj1319, 4,6-dehydratase). The assay is described as follows: LegB C4,6 dehydratase reaction with NDP-sugars. It counts as biochemical, Campylobacter jejuni 11168. The procedure:
Enzymatic reactions were performed for 4.5 h at 37° C., and then overnight at 25° C., with approximately 200 μg ml^−1 respective protein concentration using chemicals from Sigma (unless otherwise indicated). GDP-glucosamine biosynthesis. The ‘one-pot’ enzymatic synthesis of GDP-GlcN from Fru-6-P (I→IV) was accomplished using a 3 ml reaction containing His6PtmF, PtmAHis6, PgmLHis6, His6PtmE, 5 mM Fru-6-P (I), 10 mM L-Gln, 1 mM DTT, 5 mM MgCl2, 0.8 U ml^−1 pyrophosphatase, and 2.5 mM GTP in 25 mM Tris pH 7.5. Large-scale enzymatic synthesis of GDP-GlcN (IV) was accomplished using a 12 ml reaction containing 50 mM Tris pH 7.5, 1 mM GTP, 1 mM MgCl2, 0.8 U ml^−1 pyrophosphatase, 1.2 mM GlcN-1-P (III) and approximately 4.8 mg of His6PtmE. The large-scale enzymatic synthesis of GDP-GlcNAc was performed similar to that above, except the scale was increased five-fold and GlcNAc-1-P was used in place of GlcN-1-P (III). Assessment of His6PtmE substrate specificity was accomplished using 9 reactions, 80 μl each, containing 50 mM Tris pH 7.5, 2 mM MgCl2, 50 μg His6PtmE, and various combinations of 10 mM sugar-1-P (GalN-1-P, GlcN-1-P or GlcNAc-1-P) and 0.2 mM NTP (CTP, GTP, or TTP). Conversion of GDP-GlcN to GDP-GlcNAc. The His6GlmU reaction was performed using 1 mM GDP-GlcN (IV), 1.2 mM acetyl-CoA and His6GlmU in 25 mM sodium phosphate pH 7.8, 25 mM NaCl, 10 mM β-mercaptoethanol. In addition, a control reaction was performed containing 1 mM GlcN-1-P (III) instead of IV. Biosynthesis of legionaminic acid from GDP-GlcNAc. The stepwise enzymatic synthesis of intermediates or products was accomplished in 2 stages (V→VI→VII→VIII, and then VIII→IX→X) using 1 mM of V, 0.5 mM NAD, 0.8 mM PLP, 8 mM L-Glu, 1.2 mM acetyl-CoA, 1.2 mM PEP, LegBHis6, His6LegC, His6LegH, His6LegG, and His6LegI as appropriate, in 25 mM sodium phosphate pH 7.3, 25 mM NaCl. Assessment of His6LegG activity involved monitoring the reaction kinetics by ^1H NMR (see NMR spectroscopy) for 75 min using 0.75 mM GDP-2,4-diacetamido-2,4,6-trideoxy-α-D-Glc (VIII), 4 μg His6LegG in 200 μl of 25 mM sodium phosphate pH 7.3, 25 mM NaCl at 25° C. In addition, the substrate flexibility of His6LegG was assessed using a 300 μl reaction containing 40 μg His6LegG, 25 mM sodium phosphate pH 7.3, 25 mM NaCl, and 0.75 mM UDP-2,4-diacetamido-2,4,6-trideoxy-α-D-Glc, with incubation at 37° C. for 1.5 h, and then overnight at 25° C. Biosynthesis of CMP-legionaminic acid. The CMP-activation of legionaminic acid (X→XI) was performed using a 20 ml reaction containing approximately 0.2 mM of X, 50 mM MgCl2, 3 mM CTP, and 15 mg of LegFHis6 in 25 mM sodium phosphate pH 7.8, 25 mM NaCl, with incubation at 37° C. for 5 h, and then 25° C. for 72 h. Metabolite purification. Typically, reactions were passed through an Amicon Ultra-15 (10,000 molecular weight cut-off) or Ultra-4 (5,000 molecular weight cut-off) filter membrane before analysis. As required, NDP-sugar preparations (GDP-Glc, GDP-GlcN, GDP-GlcNAc, CDP-GlcNAc, TDP-GlcNAc, and CMP-Leg) were lyophilized and desalted/purified using a Superdex Peptide 10/300 GL (Amersham Biosciences) column in 25 mM ammonium bicarbonate, pH 7.9. For further purity, the NDP-sugar samples above were subjected to anion-exchange chromatography (Mono Q 4.6/100 PE, Amersham Biosciences) using ammonium bicarbonate pH 7.9. Quantification of NDP-sugar preparations was determined using the molar extinction coefficients of CMP (ε260=7,400), GDP (ε260=11,500), TDP (ε260=8,700), and UDP (ε260=10,000).
CE analysis was performed using either a P/ACE 5510 or P/ACE MDQ system (Beckman Instruments, Mississauga, Ont) with diode array detection. The capillaries were bare silica 50 μm×50 cm, with a detector at 50 cm, and the running buffer was 25 mM sodium tetraborate pH 9.4. Samples were introduced by pressure injection for 6 sec, and the separation was performed at 18 kV for 20 min. Peak integration was done using the Beckman P/ACE station software.

Assay [6] concerns the target T3, His6GlmU (Cj0821, N-acetyltransferase) (Campylobacter jejuni subsp. jejuni serotype O:2, UniProt Q9PPA2).
T3 construct: made in house; host or cells: E. coli BL21[DE3]
The assay can be described thus: His6GlmU N-acetylation reaction (CE-MS). It counts as biochemical, Campylobacter jejuni 11168. The conditions noted are these: 1 mM substrate, 1.2 mM acetyl-CoA. The procedure:
as §1

T3 sequence (Q9PPA2 whole entry): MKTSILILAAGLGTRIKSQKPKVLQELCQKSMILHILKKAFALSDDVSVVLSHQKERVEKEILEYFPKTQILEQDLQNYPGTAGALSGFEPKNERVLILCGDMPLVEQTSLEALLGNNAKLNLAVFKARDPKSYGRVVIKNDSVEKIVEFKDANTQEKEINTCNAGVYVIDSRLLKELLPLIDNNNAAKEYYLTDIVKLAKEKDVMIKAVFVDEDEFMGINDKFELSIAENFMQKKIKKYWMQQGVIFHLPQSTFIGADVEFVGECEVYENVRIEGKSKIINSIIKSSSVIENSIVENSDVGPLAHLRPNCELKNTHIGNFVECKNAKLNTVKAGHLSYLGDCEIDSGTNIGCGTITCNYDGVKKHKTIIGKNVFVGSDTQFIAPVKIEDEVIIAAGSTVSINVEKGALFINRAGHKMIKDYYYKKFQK
T2 sequence (Q0P8T0 whole entry): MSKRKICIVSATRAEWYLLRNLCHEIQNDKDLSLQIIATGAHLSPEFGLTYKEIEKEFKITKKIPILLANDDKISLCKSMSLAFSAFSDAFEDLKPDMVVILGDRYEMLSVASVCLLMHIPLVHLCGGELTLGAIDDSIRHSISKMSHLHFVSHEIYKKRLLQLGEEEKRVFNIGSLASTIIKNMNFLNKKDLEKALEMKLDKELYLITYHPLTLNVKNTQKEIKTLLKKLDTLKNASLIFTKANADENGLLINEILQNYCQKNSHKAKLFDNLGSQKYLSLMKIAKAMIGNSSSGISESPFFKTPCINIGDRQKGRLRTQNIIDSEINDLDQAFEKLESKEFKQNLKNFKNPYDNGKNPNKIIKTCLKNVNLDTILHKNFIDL
T1 sequence (Q0P9D1 whole entry): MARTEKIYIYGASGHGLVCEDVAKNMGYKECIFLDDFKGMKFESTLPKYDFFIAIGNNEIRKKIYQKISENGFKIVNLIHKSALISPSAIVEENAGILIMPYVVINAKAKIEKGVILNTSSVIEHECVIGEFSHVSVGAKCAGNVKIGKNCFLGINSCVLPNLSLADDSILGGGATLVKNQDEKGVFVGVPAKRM

In the case of `CC(=O)NC1C(OP(=O)(O)OP(=O)(O)OCC2OC(n3cnc4c(=O)[nH]c(N)nc43)C(O)C2O)OC(C)C(N)C1O` [VII, GDP-4-amino-4,6-dideoxy-N-acetyl-α-D-glucosamine], in assay [1], the “LegH conversion of VII to VIII” value was found to be 100%. The “PglD N-acetyltransfer of substrate” value in assay [2] was “able to catalyze N-acetyltransfer”.

Take `CC(=O)N[C@H]1[C@@H](OP(=O)(O)OP(=O)(O)OC[C@H]2O[C@@H](n3cnc4c(=O)[nH]c(N)nc43)[C@H](O)[C@@H]2O)O[C@H](C)C(=O)[C@@H]1O` [VI, GDP-2-acetamido-2,6-dideoxy-α-D-xylo-hexos-4-ulose]: in assay [3], the “LegC aminotransfer of substrate” value was “efficient aminotransfer”.

For `CC(=O)N[C@H]1[C@@H](OP(=O)(O)OP(=O)(O)OC[C@H]2O[C@@H](n3cnc4c(=O)[nH]c(N)nc43)[C@H](O)[C@@H]2O)O[C@H](CO)[C@@H](O)[C@@H]1O` [V, GDP-N-acetyl-α-D-glucosamine], the “LegG turnover of substrate assessed by CE” value in assay [4] was “moderate efficiency”. Further, the “LegB C4,6 dehydration of substrate” value in assay [5] (NAD+ added exogenously) is “efficient turnover”; in assay [5] (reaction with substrate and LegB only, no exogenous NAD(P)+), “failed”.

Regarding `Nc1nc2c(ncn2C2OC(COP(=O)(O)OP(=O)(O)OC3OC(CO)C(O)C(O)C3N)C(O)C2O)c(=O)[nH]1` [IV, GDP-α-D-glucosamine], in assay [5] (in the presence or absence of NAD(P)+), the “LegB reaction product formation” value is reported as “did not yield discernable product”. Besides, in assay [6], the “GlmU N-acetylation of substrate (conversion of IV to V)” value is on record as “not to completion”.
